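Interpolation was linear, between the two tested concentrations surrounding the appropriate level; five concentrations were tested over 48 hours in 96-well plates. GI50: concentration for 50% inhibition of growth.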 Active and inactive are the calls of the source. Rule as the data show it: active = GI50 up to about 1.1 µM and inactive = higher.
Legend:
Assay in all cases: inhibition of tumour cell growth, NCI panel, 48 h
HOP-92 = system: HOP-92
SK-MEL-5 = system: SK-MEL-5
SF-539 = system: SF-539
HCT-116 = system: HCT-116
SF-295 = system: SF-295
IGROV-1 = system: IGROV-1
SK-MEL-2 = system: SK-MEL-2
UACC-257 = system: UACC-257
786-0 = system: 786-0
HCT-15 = system: HCT-15
ACHN = system: ACHN
DU-145 = system: DU-145
U-251 = system: U-251
K562 = system: K562
OVCAR-4 = system: OVCAR-4
HCC 2998 = system: HCC 2998
PC-3 = system: PC-3
SK-MEL-28 = system: SK-MEL-28
SNB-75 = system: SNB-75
HL-60 = system: HL-60

O=NN(CCCl)C(=O)NC1CCCCC1 [LOMUSTINE]
GI50 (HOP-92): 31.3 µM (inactive)
GI50 (SK-MEL-5): 54.7 µM (inactive)
GI50 (SF-539): 24 µM (inactive)
GI50 (HCT-116): 38.8 µM (inactive)
GI50 (SF-295): 32 µM (inactive)
GI50 (IGROV-1): 47 µM (inactive)
GI50 (SK-MEL-2): 74.3 µM (inactive)
GI50 (UACC-257): 54.2 µM (inactive)
GI50 (786-0): 16.4 µM (inactive)
GI50 (HCT-15): 29.9 µM
GI50 (ACHN): 69.3 µM (inactive)
GI50 (DU-145): 42.1 µM (inactive)
GI50 (U-251): 31.6 µM (inactive)
GI50 (K562): 22 µM (inactive)
GI50 (OVCAR-4): 61.4 µM (inactive)
GI50 (HCC 2998): 56 µM (inactive)
GI50 (PC-3): 32.4 µM (inactive)
GI50 (SK-MEL-28): 58.7 µM (inactive)
GI50 (SNB-75): 37.2 µM (inactive)
GI50 (HL-60): 17.3 µM (inactive)

CN[C@@H](Cc1cccc2ccccc12)C(=O)N[C@@H](CC(C)C)B(O)O
GI50 (HOP-92): < 0.01 µM (active)
GI50 (SK-MEL-5): < 0.01 µM (active)
GI50 (SF-539): < 0.01 µM (active)
GI50 (HCT-116): < 0.01 µM (active)
GI50 (SF-295): < 0.01 µM (active)
GI50 (IGROV-1): < 0.01 µM (active)
GI50 (SK-MEL-2): < 0.01 µM (active)
GI50 (786-0): < 0.01 µM (active)
GI50 (HCT-15): < 0.01 µM
GI50 (ACHN): < 0.01 µM (active)
GI50 (DU-145): < 0.0109 µM (active)
GI50 (U-251): < 0.0126 µM (active)
GI50 (K562): < 0.01 µM (active)
GI50 (OVCAR-4): < 0.01 µM (active)
GI50 (HCC 2998): < 0.01 µM (active)
GI50 (PC-3): < 0.0119 µM (active)
GI50 (SK-MEL-28): < 0.01 µM (active)
GI50 (SNB-75): < 0.01 µM (active)
GI50 (HL-60): < 0.01 µM (active)

OCc1ccc2c(c1)CC1(C2)Cc2cc3c(cc2C1)CCC3
GI50 (HOP-92): 8.99 µM (inactive)
GI50 (SK-MEL-5): 2.3 µM (inactive)
GI50 (SF-539): 3.57 µM (inactive)
GI50 (HCT-116): 3.72 µM (inactive)
GI50 (SF-295): 3.39 µM (inactive)
GI50 (IGROV-1): 7.87 µM (inactive)
GI50 (SK-MEL-2): 3.75 µM (inactive)
GI50 (UACC-257): 7.48 µM (inactive)
GI50 (786-0): 5.51 µM (inactive)
GI50 (HCT-15): 2.92 µM
GI50 (ACHN): 5.31 µM (inactive)
GI50 (DU-145): 5.89 µM (inactive)
GI50 (U-251): 2.99 µM (inactive)
GI50 (K562): 0.585 µM (active)
GI50 (OVCAR-4): 17.4 µM (inactive)
GI50 (HCC 2998): 6.12 µM (inactive)
GI50 (PC-3): 1.19 µM (inactive)
GI50 (SK-MEL-28): 8.3 µM (inactive)
GI50 (SNB-75): 2.26 µM (inactive)
GI50 (HL-60): 1.11 µM (active)

CCc1nc(N)nc(N)c1-c1ccc([N+](=O)[O-])c(NCc2ccccc2)c1
GI50 (HOP-92): 10.6 µM (inactive)
GI50 (SK-MEL-5): 6.05 µM (inactive)
GI50 (SF-539): 16.3 µM (inactive)
GI50 (HCT-116): 7.36 µM (inactive)
GI50 (SF-295): 10.4 µM (inactive)
GI50 (IGROV-1): 10.9 µM (inactive)
GI50 (SK-MEL-2): 21.6 µM (inactive)
GI50 (UACC-257): 12.8 µM (inactive)
GI50 (786-0): 13.9 µM (inactive)
GI50 (HCT-15): 12.3 µM
GI50 (ACHN): 15.3 µM (inactive)
GI50 (DU-145): 14.9 µM (inactive)
GI50 (U-251): 12.8 µM (inactive)
GI50 (K562): 5.2 µM (inactive)
GI50 (OVCAR-4): 15.2 µM (inactive)
GI50 (HCC 2998): 15.2 µM (inactive)
GI50 (PC-3): 12.8 µM (inactive)
GI50 (SK-MEL-28): 16.4 µM (inactive)
GI50 (SNB-75): 10.1 µM (inactive)
GI50 (HL-60): 5.82 µM (inactive)

CCCCCn1c(=O)c2c(=O)[nH][nH]c2c2ccccc21
GI50 (HOP-92): > 100 µM (inactive)
GI50 (SK-MEL-5): > 100 µM (inactive)
GI50 (SF-539): > 100 µM (inactive)
GI50 (HCT-116): > 100 µM (inactive)
GI50 (SF-295): > 100 µM (inactive)
GI50 (IGROV-1): > 100 µM (inactive)
GI50 (SK-MEL-2): > 100 µM (inactive)
GI50 (UACC-257): > 100 µM (inactive)
GI50 (786-0): > 100 µM (inactive)
GI50 (HCT-15): > 100 µM
GI50 (ACHN): > 100 µM (inactive)
GI50 (DU-145): > 100 µM (inactive)
GI50 (U-251): > 100 µM (inactive)
GI50 (K562): > 100 µM (inactive)
GI50 (OVCAR-4): > 100 µM (inactive)
GI50 (HCC 2998): > 100 µM (inactive)
GI50 (PC-3): > 100 µM (inactive)
GI50 (SK-MEL-28): > 100 µM (inactive)
GI50 (SNB-75): > 100 µM (inactive)
GI50 (HL-60): > 100 µM (inactive)

O=C1Oc2ccccc2C(=O)/C1=C\Nc1nc(-c2ccc(O)c(O)c2)cs1
GI50 (HOP-92): 13.5 µM (inactive)
GI50 (SK-MEL-5): 4.8 µM (inactive)
GI50 (SF-539): 5.46 µM (inactive)
GI50 (HCT-116): 2.7 µM (inactive)
GI50 (SF-295): 24.8 µM (inactive)
GI50 (IGROV-1): 7.76 µM (inactive)
GI50 (SK-MEL-2): 2.47 µM (inactive)
GI50 (UACC-257): 3.61 µM (inactive)
GI50 (786-0): 2.54 µM (inactive)
GI50 (HCT-15): 3.39 µM
GI50 (ACHN): 2.88 µM (inactive)
GI50 (DU-145): 4.94 µM (inactive)
GI50 (U-251): 5.01 µM (inactive)
GI50 (K562): 1.36 µM (inactive)
GI50 (OVCAR-4): 10.7 µM (inactive)
GI50 (HCC 2998): 7.14 µM (inactive)
GI50 (PC-3): 3.24 µM (inactive)
GI50 (SK-MEL-28): 9.12 µM (inactive)
GI50 (SNB-75): 5.56 µM (inactive)
GI50 (HL-60): 2.32 µM (inactive)

O=C(/C=C/c1ccccc1)N1CCCCC1
GI50 (HOP-92): > 100 µM (inactive)
GI50 (SK-MEL-5): > 100 µM (inactive)
GI50 (SF-539): > 100 µM (inactive)
GI50 (HCT-116): > 100 µM (inactive)
GI50 (SF-295): > 100 µM (inactive)
GI50 (IGROV-1): > 100 µM (inactive)
GI50 (SK-MEL-2): > 100 µM (inactive)
GI50 (UACC-257): > 100 µM (inactive)
GI50 (786-0): > 100 µM (inactive)
GI50 (HCT-15): > 100 µM
GI50 (ACHN): > 100 µM (inactive)
GI50 (DU-145): > 100 µM (inactive)
GI50 (U-251): > 100 µM (inactive)
GI50 (K562): > 100 µM (inactive)
GI50 (OVCAR-4): > 100 µM (inactive)
GI50 (HCC 2998): > 100 µM (inactive)
GI50 (PC-3): > 100 µM (inactive)
GI50 (SK-MEL-28): > 100 µM (inactive)
GI50 (SNB-75): 15.2 µM (inactive)
GI50 (HL-60): > 100 µM (inactive)

— ChEMBL document CHEMBL1201862, “PubChem BioAssay data set” (2004)
